Reference: US10167262B2, “Herbicidal substituted 3-arylpyrazoles” (FMC CORPORATION, priority 2014, dated 2019)

Columns and labels:
Test in all cases: Test E pre-/postemergence greenhouse test, plant response rating 0-100
Type in all cases: in vivo
[1] = tested on: Brazilian crabgrass (Digitaria horizontalis); conditions: Postemergence, scale 0 to 100
In short: (§1)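 Seeds sown in silt loam were treated preemergence, and seedlings in peat-based potting medium were treated postemergence at the 1- to 4-leaf stage (2-18 cm tall). Test chemicals were formulated in a non-phytotoxic solvent mixture with surfactant. After 14-21 days in the greenhouse, injury was rated visually against untreated controls (0 = no effect, 100 = complete control).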

[2] = tested on: Italian ryegrass (Lolium multiflorum); conditions: scale 0 to 100; for Plant response rating, Ryegrass, Italian: Postemergence; for Ryegrass, Italian plant response rating: Preemergence
In short: as §1

[3] = tested on: arrowleaf sida (Sida rhombifolia); conditions: for Plant response rating, Arrowleaf Sida: Postemergence; for Arrowleaf Sida plant response rating: Preemergence
In short: as §1

[4] = tested on: barnyardgrass (Echinochloa crus-galli); conditions: scale 0 to 100; for Plant response rating, Barnyardgrass: Postemergence; for Barnyardgrass plant response rating: Preemergence
In short: as §1

[5] = tested on: corn (Zea mays); conditions: scale 0 to 100; for Plant response rating, Corn: Postemergence; for Corn plant response rating: Preemergence
In short: as §1

[6] = tested on: dayflower (Virginia (VA) dayflower, Commelina virginica); conditions: scale 0 to 100; for Plant response rating, Dayflower, VA: Postemergence
In short: as §1

[7] = tested on: field bindweed (Convolvulus arvensis); conditions: scale 0 to 100; for Plant response rating, Field Bindweed: Postemergence; for Field Bindweed plant response rating: Preemergence
In short: as §1

[8] = tested on: hairy beggarticks (Bidens pilosa); conditions: scale 0 to 100; for Plant response rating, Beggarticks: Postemergence; for Beggarticks plant response rating: Preemergence
In short: as §1

[9] = tested on: palmer pigweed (Amaranthus palmeri); conditions: scale 0 to 100; for Plant response rating, Pigweed, Palmer: Postemergence; for Pigweed, Palmer plant response rating: Preemergence
In short: as §1

[10] = tested on: sandbur (southern sandbur, Cenchrus echinatus); conditions: scale 0 to 100; for Plant response rating, Sandbur: Postemergence; for Sandbur plant response rating: Preemergence
In short: as §1

[11] = tested on: waterhemp (common waterhemp, Amaranthus rudis); conditions: scale 0 to 100; for Plant response rating, Waterhemp: Postemergence; for Waterhemp plant response rating: Preemergence
In short: as §1

[12] = tested on: wild poinsettia (Euphorbia heterophylla); conditions: scale 0 to 100; for Plant response rating, Poinsettia, Wild: Postemergence; for Poinsettia, Wild plant response rating: Preemergence
In short: as §1

O=C(c1ccccc1)c1cn(S(=O)(=O)C(F)(F)F)nc1-c1cc(Cl)cc(Cl)c1 [Compound 2]
Plant response rating, Crabgrass, Brazil ([1]; 31 g ai/ha): 0
Plant response rating, Crabgrass, Brazil ([1]; 62 g ai/ha): 0
Plant response rating, Crabgrass, Brazil ([1]; 125 g ai/ha): 0
Plant response rating, Crabgrass, Brazil ([1]; 250 g ai/ha): 0
Plant response rating, Crabgrass, Brazil ([1]; 500 g ai/ha): 0
Plant response rating, Ryegrass, Italian ([2]; 31 g ai/ha): 0
Plant response rating, Ryegrass, Italian ([2]; 62 g ai/ha): 0
Plant response rating, Ryegrass, Italian ([2]; 125 g ai/ha): 0
Plant response rating, Ryegrass, Italian ([2]; 250 g ai/ha): 0
Plant response rating, Ryegrass, Italian ([2]; 500 g ai/ha): 0
Ryegrass, Italian plant response rating ([2]; 31 g ai/ha): 0
Ryegrass, Italian plant response rating ([2]; 62 g ai/ha): 0
Ryegrass, Italian plant response rating ([2]; 125 g ai/ha): 0
Ryegrass, Italian plant response rating ([2]; 250 g ai/ha): 0
Ryegrass, Italian plant response rating ([2]; 500 g ai/ha): 0
Plant response rating, Arrowleaf Sida ([3]; 31 g ai/ha, scale 0 to 100): 95
Plant response rating, Arrowleaf Sida ([3]; 62 g ai/ha, scale 0 to 100): 95
Plant response rating, Arrowleaf Sida ([3]; 125 g ai/ha, scale 0 to 100): 95
Plant response rating, Arrowleaf Sida ([3]; 250 g ai/ha, scale 0 to 100): 95
Plant response rating, Arrowleaf Sida ([3]; 500 g ai/ha, scale 0 to 100 (0 no effect, 100 complete control)): 98
Arrowleaf Sida plant response rating ([3]; 31 g ai/ha, scale 0 to 100): 35
Arrowleaf Sida plant response rating ([3]; 62 g ai/ha, scale 0 to 100): 35
Arrowleaf Sida plant response rating ([3]; 125 g ai/ha, scale 0 to 100): 50
Arrowleaf Sida plant response rating ([3]; 250 g ai/ha, scale 0 to 100): 98
Arrowleaf Sida plant response rating ([3]; 500 g ai/ha, scale 0 to 100): 95
Plant response rating, Barnyardgrass ([4]; 31 g ai/ha): 0
Plant response rating, Barnyardgrass ([4]; 62 g ai/ha): 0
Plant response rating, Barnyardgrass ([4]; 125 g ai/ha): 0
Plant response rating, Barnyardgrass ([4]; 250 g ai/ha): 0
Plant response rating, Barnyardgrass ([4]; 500 g ai/ha): 0
Barnyardgrass plant response rating ([4]; 31 g ai/ha): 0
Barnyardgrass plant response rating ([4]; 62 g ai/ha): 0
Barnyardgrass plant response rating ([4]; 125 g ai/ha): 0
Barnyardgrass plant response rating ([4]; 250 g ai/ha): 0
Barnyardgrass plant response rating ([4]; 500 g ai/ha): 0
Plant response rating, Corn ([5]; 31 g ai/ha): 0
Plant response rating, Corn ([5]; 62 g ai/ha): 0
Plant response rating, Corn ([5]; 125 g ai/ha): 0
Plant response rating, Corn ([5]; 250 g ai/ha): 0
Plant response rating, Corn ([5]; 500 g ai/ha): 0
Corn plant response rating ([5]; 31 g ai/ha): 0
Corn plant response rating ([5]; 62 g ai/ha): 0
Corn plant response rating ([5]; 125 g ai/ha): 0
Corn plant response rating ([5]; 250 g ai/ha): 0
Corn plant response rating ([5]; 500 g ai/ha): 0
Plant response rating, Dayflower, VA ([6]; 31 g ai/ha): 0
Plant response rating, Dayflower, VA ([6]; 62 g ai/ha): 0
Plant response rating, Dayflower, VA ([6]; 125 g ai/ha): 0
Plant response rating, Dayflower, VA ([6]; 250 g ai/ha): 0
Plant response rating, Dayflower, VA ([6]; 500 g ai/ha): 0
Dayflower, VA plant response rating ([6]; Preemergence, 62 g ai/ha): 0
Plant response rating, Field Bindweed ([7]; 31 g ai/ha): 0
Plant response rating, Field Bindweed ([7]; 62 g ai/ha): 0
Plant response rating, Field Bindweed ([7]; 125 g ai/ha): 0
Plant response rating, Field Bindweed ([7]; 250 g ai/ha): 0
Plant response rating, Field Bindweed ([7]; 500 g ai/ha): 0
Field Bindweed plant response rating ([7]; 31 g ai/ha): 0
Field Bindweed plant response rating ([7]; 62 g ai/ha): 0
Field Bindweed plant response rating ([7]; 125 g ai/ha): 0
Field Bindweed plant response rating ([7]; 250 g ai/ha): 0
Field Bindweed plant response rating ([7]; 500 g ai/ha): 0
Plant response rating, Beggarticks ([8]; 31 g ai/ha): 80
Plant response rating, Beggarticks ([8]; 62 g ai/ha): 90
Plant response rating, Beggarticks ([8]; 125 g ai/ha): 100
Plant response rating, Beggarticks ([8]; 250 g ai/ha): 100
Plant response rating, Beggarticks ([8]; 500 g ai/ha): 100
Beggarticks plant response rating ([8]; 31 g ai/ha): 0
Beggarticks plant response rating ([8]; 62 g ai/ha): 0
Beggarticks plant response rating ([8]; 125 g ai/ha): 0
Beggarticks plant response rating ([8]; 250 g ai/ha): 0
Beggarticks plant response rating ([8]; 500 g ai/ha): 0
Plant response rating, Pigweed, Palmer ([9]; 31 g ai/ha): 65
Plant response rating, Pigweed, Palmer ([9]; 62 g ai/ha): 85
Plant response rating, Pigweed, Palmer ([9]; 125 g ai/ha): 90
Plant response rating, Pigweed, Palmer ([9]; 250 g ai/ha): 95
Plant response rating, Pigweed, Palmer ([9]; 500 g ai/ha): 100
Pigweed, Palmer plant response rating ([9]; 31 g ai/ha): 0
Pigweed, Palmer plant response rating ([9]; 62 g ai/ha): 0
Pigweed, Palmer plant response rating ([9]; 125 g ai/ha): 0
Pigweed, Palmer plant response rating ([9]; 250 g ai/ha): 0
Pigweed, Palmer plant response rating ([9]; 500 g ai/ha): 100
Plant response rating, Sandbur ([10]; 31 g ai/ha): 0
Plant response rating, Sandbur ([10]; 62 g ai/ha): 0
Plant response rating, Sandbur ([10]; 125 g ai/ha): 0
Plant response rating, Sandbur ([10]; 250 g ai/ha): 0
Plant response rating, Sandbur ([10]; 500 g ai/ha): 0
Sandbur plant response rating ([10]; 31 g ai/ha): 0
Sandbur plant response rating ([10]; 62 g ai/ha): 0
Sandbur plant response rating ([10]; 125 g ai/ha): 0
Sandbur plant response rating ([10]; 250 g ai/ha): 0
Sandbur plant response rating ([10]; 500 g ai/ha): 0
Plant response rating, Waterhemp ([11]; 31 g ai/ha): 90
Plant response rating, Waterhemp ([11]; 62 g ai/ha): 80
Plant response rating, Waterhemp ([11]; 125 g ai/ha): 98
Plant response rating, Waterhemp ([11]; 250 g ai/ha): 98
Plant response rating, Waterhemp ([11]; 500 g ai/ha): 100
Waterhemp plant response rating ([11]; 31 g ai/ha): 0
Waterhemp plant response rating ([11]; 125 g ai/ha): 30
Waterhemp plant response rating ([11]; 250 g ai/ha): 65
Waterhemp plant response rating ([11]; 500 g ai/ha): 100
Plant response rating, Poinsettia, Wild ([12]; 31 g ai/ha): 0
Plant response rating, Poinsettia, Wild ([12]; 62 g ai/ha): 0
Plant response rating, Poinsettia, Wild ([12]; 125 g ai/ha): 0
Plant response rating, Poinsettia, Wild ([12]; 250 g ai/ha): 0
Plant response rating, Poinsettia, Wild ([12]; 500 g ai/ha): 0
Poinsettia, Wild plant response rating ([12]; 62 g ai/ha): 0
Poinsettia, Wild plant response rating ([12]; 125 g ai/ha): 0
Poinsettia, Wild plant response rating ([12]; 250 g ai/ha): 0
Poinsettia, Wild plant response rating ([12]; 500 g ai/ha): 0
